Results: patent publication US20180346473A1, “FUSED BICYCLIC COMPOUNDS” (Akarna Therapeutics, Ltd., priority 2017, published 2018)

Target: T1, FXR (Homo sapiens, UniProt Q96RI1)
T1 sequence (Q96RI1 1-486): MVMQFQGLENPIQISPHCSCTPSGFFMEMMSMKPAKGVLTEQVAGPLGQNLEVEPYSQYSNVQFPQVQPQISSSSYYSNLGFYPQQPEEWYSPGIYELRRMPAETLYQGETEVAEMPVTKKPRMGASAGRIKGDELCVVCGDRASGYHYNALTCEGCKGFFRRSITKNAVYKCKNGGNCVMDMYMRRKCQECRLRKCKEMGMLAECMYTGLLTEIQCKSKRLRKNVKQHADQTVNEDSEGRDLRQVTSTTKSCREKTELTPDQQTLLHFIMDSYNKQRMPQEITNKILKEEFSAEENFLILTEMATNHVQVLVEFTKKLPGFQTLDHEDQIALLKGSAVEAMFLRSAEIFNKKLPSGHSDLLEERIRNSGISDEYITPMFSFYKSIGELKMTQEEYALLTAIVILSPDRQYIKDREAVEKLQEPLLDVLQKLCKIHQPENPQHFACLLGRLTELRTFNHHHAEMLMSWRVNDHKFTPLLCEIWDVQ
Test: FXR Agonist Assay (Gaussia luciferase reporter in cells)
Type: cell-based
Settings: 20 hours incubation at 37° C., Gaussia luciferase luminescence, normalized to DMSO control
Description: Starting from 3.33 mM of compound in DMSO solution, a 10-point 3-fold serial dilution was made by diluting 5 μL of compound into 10 μL of DMSO. The serially diluted compound was then diluted 1:33 into DMEM. This medium was then diluted ten-fold into the culture medium with the cells (10 μL/well). All concentration points are assayed in duplicate. Plates were incubated at 37° C. for 20 hours. After the incubation, 20 μL of culture medium were removed from each well and mixed with 50 μL of assay solution (Pierce™ Gaussia Luciferase Flash Assay Kit). The luminescence was measured immediately after addition of the Luc substrate with an Envision microplate reader. The raw data was uploaded to CDD and dose-response curves were generated using the Levenberg-Marquardt algorithm integrated into CDD. A negative control DMSO is included on each plate and used to normalize the data with the CDD built-in normalization function.

EC50 [nM]	Compound
< 500	CC(C)OC(=O)C1=CN(C(=O)c2ccc(OCCN3CCOCC3)c(F)c2)CC(C)(C)c2c(C(F)(F)F)n[nH]c21 [Compound 3, (E)-isopropyl 6-(3-fluoro-4-(2-morpholinoethoxy)benzoyl)-4,4-dimethyl-3-(trifluoromethyl)-1,4,5,6-tetrahydropyrazolo[3,4-d]azepine-8-carboxylate]
< 500	CC(C)NC(=O)C1=CN(C(=O)c2ccc(F)c(F)c2)CC(C)(C)c2c(C(F)(F)F)n[nH]c21 [Compound 1, (E)-6-(3,4-difluorobenzoyl)-N-isopropyl-4,4-dimethyl-3-(trifluoromethyl)-1,4,5,6-tetrahydropyrazolo[3,4-d]azepine-8-carboxamide]
< 500	CC(C)OC(=O)C1=CN(C(=O)c2ccc(OCCN3CCOCC3)cc2)CC(C)(C)c2c(C(F)(F)F)n[nH]c21 [Compound 2, (E)-isopropyl 4,4-dimethyl-6-(4-(2-morpholinoethoxy)benzoyl)-3-(trifluoromethyl)-1,4,5,6-tetrahydropyrazolo[3,4-d]azepine-8-carboxylate]
